According to ChEMBL document CHEMBL4138241, “Synthesis and in vitro evaluation of novel substituted isatin-propylene-1H-1,2,3-triazole-4-methylene-moxifloxacin hybrids for their anti-mycobacterial activities” (Eur J Med Chem, 2018):
≈ marks a conversion by molar mass, not a printed value.

tested on: Mycobacterium tuberculosis; assay: Potency index, ratio of moxifloxacin MIC to compound MIC for antimycobacterial activity against isoniazid/rifampicin/ethambutol-resistant Mycobacterium tuberculosis; type: functional; details: not given

With `CO/N=C1/C(=O)N(CCCn2cc(CN3CCC[C@@H]4CN(c5c(F)cc6c(=O)c(C(=O)O)cn(C7CC7)c6c5OC)C[C@@H]43)nn2)c2ccc(F)cc21` as the compound, how does the Ratio read?
Its Ratio is 2 - 2048.

tested on: Mycobacterium tuberculosis; assay: Potency index, ratio of rifampicin MIC to compound MIC for antimycobacterial activity against isoniazid/rifampicin/ethambutol-resistant Mycobacterium tuberculosis; type: functional; details: not given

For `CO/N=C1/C(=O)N(CCCn2cc(CN3CCC[C@@H]4CN(c5c(F)cc6c(=O)c(C(=O)O)cn(C7CC7)c6c5OC)C[C@@H]43)nn2)c2ccc(F)cc21`, which Ratio is on record?
The Ratio was 2 - 2048.

tested on: Mycobacterium tuberculosis; assay: Antimycobacterial activity against isoniazid/rifampicin/ethambutol-resistant Mycobacterium tuberculosis after 3 days by rapid direct susceptibility test; type: functional; details: 72 h

How did the MIC turn out when `COc1c(N2C[C@H]3CCCN(Cc4cn(CCCN5C(=O)C(=O)c6ccccc65)nn4)[C@H]3C2)c(F)cc2c(=O)c(C(=O)O)cn(C3CC3)c12` was run?
Its MIC is 1 mg/L (≈ 1.49 µM).

How did the MIC turn out when `COc1c(N2C[C@H]3CCCN(Cc4cn(CCCN5C(=O)/C(=N/O)c6ccccc65)nn4)[C@H]3C2)c(F)cc2c(=O)c(C(=O)O)cn(C3CC3)c12` was run?
Its MIC is 1 mg/L (≈ 1.46 µM).

For `COc1c(N2C[C@@H]3CCCN[C@@H]3C2)c(F)cc2c(=O)c(C(=O)O)cn(C3CC3)c12` [MOXIFLOXACIN], which MIC is on record?
The MIC was 0.12 mg/L (≈ 0.299 µM).

Which MIC does the source give for `CO/N=C1/C(=O)N(CCCn2cc(CN3CCC[C@@H]4CN(c5c(F)cc6c(=O)c(C(=O)O)cn(C7CC7)c6c5OC)C[C@@H]43)nn2)c2ccccc21` here?
Its MIC is 0.25 mg/L (≈ 0.358 µM).

How did the MIC turn out when `COc1c(N2C[C@H]3CCCN(Cc4cn(CCCN5C(=O)C(=O)c6cc(F)ccc65)nn4)[C@H]3C2)c(F)cc2c(=O)c(C(=O)O)cn(C3CC3)c12` was run?
The MIC was 0.25 mg/L (≈ 0.364 µM).

With `CCO/N=C1/C(=O)N(CCCn2cc(CN3CCC[C@@H]4CN(c5c(F)cc6c(=O)c(C(=O)O)cn(C7CC7)c6c5OC)C[C@@H]43)nn2)c2ccc(F)cc21` as the compound, how does the MIC read?
The MIC was 0.12 mg/L (≈ 0.164 µM).

With `COc1c(N2C[C@H]3CCCN(Cc4cn(CCCN5C(=O)C(=O)c6cc(C)ccc65)nn4)[C@H]3C2)c(F)cc2c(=O)c(C(=O)O)cn(C3CC3)c12` as the compound, how does the MIC read?
The MIC was 1 mg/L (≈ 1.46 µM).

For `COc1c(N2C[C@H]3CCCN(Cc4cn(CCCN5C(=O)/C(=N/O)c6cc(C)ccc65)nn4)[C@H]3C2)c(F)cc2c(=O)c(C(=O)O)cn(C3CC3)c12`, which MIC is on record?
Its MIC is 2 mg/L (≈ 2.86 µM).

How did the MIC turn out when `NNC(=O)c1ccncc1` [ISONIAZID] was run?
The MIC was greater than 128 mg/L.

Which MIC does the source give for `COc1c(N2C[C@H]3CCCN(Cc4cn(CCCN5C(=O)/C(=N/O)c6cc(F)ccc65)nn4)[C@H]3C2)c(F)cc2c(=O)c(C(=O)O)cn(C3CC3)c12` here?
The MIC was 0.25 mg/L (≈ 0.356 µM).

Which MIC does the source give for `CCO/N=C1/C(=O)N(CCCn2cc(CN3CCC[C@@H]4CN(c5c(F)cc6c(=O)c(C(=O)O)cn(C7CC7)c6c5OC)C[C@@H]43)nn2)c2ccc(C)cc21` here?
The MIC was 0.25 mg/L (≈ 0.344 µM).

`CO/N=C1/C(=O)N(CCCn2cc(CN3CCC[C@@H]4CN(c5c(F)cc6c(=O)c(C(=O)O)cn(C7CC7)c6c5OC)C[C@@H]43)nn2)c2ccc(F)cc21` was tested. Which MIC did it give?
Its MIC is 0.06 mg/L (≈ 0.0837 µM).

How did the MIC turn out when `CCO/N=C1/C(=O)N(CCCn2cc(CN3CCC[C@@H]4CN(c5c(F)cc6c(=O)c(C(=O)O)cn(C7CC7)c6c5OC)C[C@@H]43)nn2)c2ccccc21` was run?
Its MIC is 0.25 mg/L (≈ 0.351 µM).

With `CO[C@H]1/C=C/O[C@@]2(C)Oc3c(C)c(O)c4c(O)c(c(/C=N/N5CCN(C)CC5)c(O)c4c3C2=O)NC(=O)/C(C)=C\C=C\[C@H](C)[C@H](O)[C@@H](C)[C@@H](O)[C@@H](C)[C@H](OC(C)=O)[C@@H]1C` [RIFAMPIN] as the compound, how does the MIC read?
The MIC was 32 mg/L (≈ 38.9 µM).

With `CO/N=C1/C(=O)N(CCCn2cc(CN3CCC[C@@H]4CN(c5c(F)cc6c(=O)c(C(=O)O)cn(C7CC7)c6c5OC)C[C@@H]43)nn2)c2ccc(C)cc21` as the compound, how does the MIC read?
Its MIC is 0.5 mg/L (≈ 0.701 µM).

tested on: Mycobacterium tuberculosis; assay: Potency index, ratio of isoniazid MIC to compound MIC for antimycobacterial activity against isoniazid/rifampicin/ethambutol-resistant Mycobacterium tuberculosis; type: functional; details: not given

How did the Ratio turn out when `CO/N=C1/C(=O)N(CCCn2cc(CN3CCC[C@@H]4CN(c5c(F)cc6c(=O)c(C(=O)O)cn(C7CC7)c6c5OC)C[C@@H]43)nn2)c2ccc(F)cc21` was run?
The Ratio was 2 - 2048.
